Our source for the MBC and MIC values is PMC7689250, “Synthetic Peptide Libraries Designed From a Minimal Alpha-Helical Domain of AS-48-Bacteriocin Homologs Exhibit Potent Antibacterial Activity” (Frontiers in Microbiology, 2020).

The MBC is the smallest concentration meeting the test's criterion for killing. What is called MIC is the smallest concentration in the dilution series that meets the test's criterion for growth inhibition.

One assay relates to E. coli (BL21). In kind it is cell-based, Escherichia coli. The note with it: for MBC: BL21; for MIC: BL21, 16 h. The protocol:
(§1) Peptides were screened against Escherichia coli (BL21), Streptococcus pyogenes (M1T1 5448, hereby referred to as M1), Pseudomonas aeruginosa (PAO1), and Staphylococcus aureus (USA300). Overnight bacterial cultures were grown in optimal media for each species: Luria-Bertani (LB) broth for E. coli, P. aeruginosa, and S. aureus, and Todd-Hewitt (TH) broth for S. pyogenes. Cultures were pelleted and re-suspended in Mueller-Hinton (MH) broth for peptide screens or minimal inhibitory concentration (MIC) assays, with 1 × 10^6 CFU/mL bacteria added per well ([Wiegand et al., 2008]). MICs for each parent peptide were identified against each bacterial strain as previously described ([Fields et al., 2018]). Members of each peptide library were screened against each bacterial strain at half of the MIC of the corresponding parent peptide to identify library members with increased antimicrobial activity relative to the parent peptide. […] Minimal bactericidal concentrations (MBCs) were determined following the respective MIC assays by plating aliquots from wells corresponding to each peptide concentration from the 96-well plate used for the MIC on species-appropriate agar. Plates were incubated at 37°C overnight, and MBCs were identified as the lowest concentrations of peptide at which no colonies were obtained. A Synergy H1 Microplate Reader (BioTek, Winooski, VT, United States) was used to determine the MICs and identify peptides with greater antimicrobial activity than the corresponding parent peptide by measuring OD 600 of the bacterial cultures in 96-well microtiter plates.

Another assay concerns S. pyogenes (M1). In kind it is cell-based, Streptococcus pyogenes. The settings on record: for MBC: M1. Here is the method:
as §1

The test system of another assay is S. aureus (USA300). The class given is cell-based, Staphylococcus aureus. The settings on record: for MBC: USA300; for MIC: USA300, 16 h. Here is the method:
as §1

A further assay has as its system P. aeruginosa (PAO1). The class given is cell-based, Pseudomonas aeruginosa. The settings on record: for MBC: PAO1; for MIC: PAO1, 16 h. The protocol: as §1

Where two headings read alike, the source gives them in different places. Residues, ends and D or L forms follow the SMILES beside them.

For the compound `CC[C@H](C)[C@H](NC(=O)[C@H](CCCCN)NC(=O)CNC(=O)[C@H](Cc1ccccc1)NC(=O)[C@H](CCCCN)NC(=O)[C@H](CCCNC(=N)N)NC(=O)[C@H](CC(C)C)NC(=O)[C@H](Cc1ccc(O)cc1)NC(=O)[C@H](CCC(=O)O)NC(=O)[C@H](CC(C)C)NC(=O)[C@H](CC(C)C)NC(=O)[C@H](CCC(=O)O)NC(=O)[C@H](CCCCN)NC(=O)[C@@H](NC(=O)[C@H](CC(C)C)NC(=O)[C@H](CCCNC(=N)N)NC(=O)[C@H](CCC(N)=O)NC(=O)[C@H](C)NC(=O)CNC(=O)[C@H](C)N)[C@@H](C)O)C(=O)N[C@@H](C)C(=O)N[C@@H](CCCNC(=N)N)C(=O)N[C@@H](CCCCN)C(=O)N[C@@H](C)C(=O)N[C@@H](Cc1c[nH]c2ccccc12)C(=O)O` [Syn-xiamencin-7] (H-AGAQRLTKELLEYLRKFGKIARKAW-OH; N-terminus and C-terminus assumed), the MBC in the assay with E. coli (BL21) is 4 µM; with S. pyogenes (M1) it was 0.5 µM; in the assay on S. aureus (USA300), more than 128 µM; with P. aeruginosa (PAO1), 128 µM. For the same compound, the MIC in the assay on E. coli (BL21) was 4 µM; in the assay on S. pyogenes (M1) (S. pyogenes M1), 0.5 µM; in the assay with S. aureus (USA300), more than 128 µM; with P. aeruginosa (PAO1), 64 µM.

In the case of `CC[C@H](C)[C@H](NC(=O)[C@H](CCC(=O)O)NC(=O)[C@H](CCCNC(=N)N)NC(=O)[C@H](CCCNC(=N)N)NC(=O)[C@H](CC(C)C)NC(=O)[C@H](Cc1ccc(O)cc1)NC(=O)[C@H](C)NC(=O)[C@H](CCCCN)NC(=O)[C@@H](NC(=O)[C@@H](NC(=O)[C@H](CCC(N)=O)NC(=O)[C@H](CCCNC(=N)N)NC(=O)CNC(=O)[C@H](C)N)[C@@H](C)O)[C@@H](C)CC)C(=O)N[C@@H](CCCNC(=N)N)C(=O)N[C@@H](CCCCN)C(=O)N[C@@H](CCCNC(=N)N)C(=O)NCC(=O)N[C@@H](CCCNC(=N)N)C(=O)N[C@@H](CCCCN)C(=O)N[C@@H](C)C(=O)N[C@H](C(=O)N[C@H](C(=O)N[C@@H](C)C(=O)N[C@@H](Cc1c[nH]c2ccccc12)C(=O)O)[C@@H](C)CC)C(C)C` [Syn-sordellicin-1] (H-AGRQTIKAYLRREIRKRGRKAVIAW-OH; N-terminus and C-terminus assumed), the MBC was 8 µM with E. coli (BL21), 8 µM in the assay on S. pyogenes (M1), more than 128 µM in the assay with S. aureus (USA300) and 16 µM with P. aeruginosa (PAO1). In addition, the MIC was 8 µM in the assay with E. coli (BL21); 8 µM in the assay with S. pyogenes (M1) (M1, 16 h); more than 128 µM in the assay with S. aureus (USA300); 16 µM with P. aeruginosa (PAO1).

With `CC[C@H](C)[C@H](NC(=O)[C@H](CCCCN)NC(=O)[C@H](CCCCN)NC(=O)CNC(=O)[C@H](CCC(=O)O)NC(=O)[C@H](CCC(N)=O)NC(=O)[C@@H](NC(=O)[C@H](Cc1c[nH]c2ccccc12)NC(=O)[C@H](CCCCN)NC(=O)[C@H](CCCCN)NC(=O)[C@H](CC(C)C)NC(=O)[C@H](CCCNC(=N)N)NC(=O)[C@H](CCC(N)=O)NC(=O)[C@H](Cc1ccccc1)NC(=O)[C@@H](NC(=O)[C@H](CCCCN)NC(=O)[C@H](CCC(=O)O)NC(=O)[C@@H](NC(=O)CNC(=O)[C@H](C)N)[C@@H](C)O)[C@@H](C)CC)[C@@H](C)CC)C(=O)N[C@@H](C)C(=O)N[C@@H](CCCCN)C(=O)N[C@@H](CCCNC(=N)N)C(=O)N[C@@H](C)C(=O)N[C@@H](Cc1c[nH]c2ccccc12)C(=O)O` [Syn-larvacin-31] (H-AGTEKIFQRLKKWIQEGKKIAKRAW-OH; N-terminus and C-terminus assumed), the MBC came to 1 µM in the assay with E. coli (BL21), 0.25 µM in the assay on S. pyogenes (M1), 8 µM in the assay on S. aureus (USA300) and 128 µM with P. aeruginosa (PAO1). The minimum inhibitory concentration (MIC) in the assay with E. coli (BL21) worked out at 1 µM; with S. pyogenes (M1) (M1, 16 h) it was 0.25 µM; in the assay with S. aureus (USA300), 8 µM; in the assay on P. aeruginosa (PAO1), 64 µM.

With `CC[C@H](C)[C@H](NC(=O)[C@H](CCCCN)NC(=O)[C@H](CCCCN)NC(=O)[C@H](Cc1c[nH]c2ccccc12)NC(=O)[C@H](CCC(=O)O)NC(=O)[C@H](CC(N)=O)NC(=O)[C@@H](NC(=O)[C@@H](NC(=O)[C@H](CCCCN)NC(=O)[C@H](CCCCN)NC(=O)[C@H](CC(C)C)NC(=O)[C@H](CCCNC(=N)N)NC(=O)[C@H](CC(N)=O)NC(=O)[C@H](Cc1ccccc1)NC(=O)[C@@H](NC(=O)[C@H](CCCCN)NC(=O)[C@H](CCC(=O)O)NC(=O)[C@@H](NC(=O)CNC(=O)[C@H](C)N)[C@@H](C)O)[C@@H](C)CC)[C@@H](C)O)[C@@H](C)CC)C(=O)N[C@@H](C)C(=O)N[C@@H](CCCCN)C(=O)N[C@@H](CCCNC(=N)N)C(=O)N[C@@H](C)C(=O)N[C@@H](Cc1c[nH]c2ccccc12)C(=O)O` [Syn-larvacin-48] (H-AGTEKIFNRLKKTINEWKKIAKRAW-OH; N-terminus and C-terminus assumed), the MBC stood at 4 µM in the assay on E. coli (BL21), 8 µM in the assay on S. pyogenes (M1), 8 µM in the assay with S. aureus (USA300) and 32 µM in the assay with P. aeruginosa (PAO1). For the same compound, the minimal inhibitory concentration (MIC) in the assay on E. coli (BL21) was 4 µM; in the assay with S. pyogenes (M1) (M1, 16 h) it was 8 µM; in the assay on S. aureus (USA300), 8 µM; in the assay with P. aeruginosa (PAO1) it was 16 µM.

In the case of `CC[C@H](C)[C@H](NC(=O)[C@H](CCCCN)NC(=O)[C@H](CCCCN)NC(=O)[C@H](CCCCN)NC(=O)[C@H](CC(C)C)NC(=O)[C@H](Cc1ccccc1)NC(=O)[C@H](CCC(N)=O)NC(=O)[C@H](CCCNC(=N)N)NC(=O)[C@@H](NC(=O)[C@@H](NC(=O)[C@H](CCC(=O)O)NC(=O)[C@H](CCCCN)NC(=O)CNC(=O)[C@H](C)N)[C@@H](C)O)[C@@H](C)CC)C(=O)N[C@@H](CCC(N)=O)C(=O)N[C@@H](CCC(=O)O)C(=O)N[C@@H](CCCCN)C(=O)NCC(=O)N[C@@H](CCCCN)C(=O)N[C@@H](CCCNC(=N)N)C(=O)N[C@@H](C)C(=O)N[C@H](C(=O)N[C@H](C(=O)N[C@@H](C)C(=O)N[C@@H](Cc1c[nH]c2ccccc12)C(=O)O)[C@@H](C)CC)[C@@H](C)O` [Syn-larvacin-1] (H-AGKETIRQFLKKKIQEKGKRATIAW-OH; N-terminus and C-terminus assumed), the MBC with E. coli (BL21) is more than 128 µM; in the assay with S. pyogenes (M1), 64 µM; in the assay on S. aureus (USA300), more than 128 µM; with P. aeruginosa (PAO1) it was more than 128 µM. Besides, the MIC in the assay on E. coli (BL21) was 32 µM; with S. pyogenes (M1) (M1, 16 h), 8 µM; in the assay with S. aureus (USA300), more than 128 µM; in the assay with P. aeruginosa (PAO1), more than 128 µM.

For the compound `CC[C@H](C)[C@H](NC(=O)[C@H](CCCNC(=N)N)NC(=O)[C@H](C)NC(=O)[C@H](CCCCN)NC(=O)[C@H](CCCNC(=N)N)NC(=O)CNC(=O)[C@@H](NC(=O)[C@H](CCCCN)NC(=O)[C@H](CCCNC(=N)N)NC(=O)[C@@H](NC(=O)[C@H](CCC(=O)O)NC(=O)[C@H](CCCNC(=N)N)NC(=O)[C@H](CCCNC(=N)N)NC(=O)[C@H](CC(C)C)NC(=O)[C@H](Cc1ccc(O)cc1)NC(=O)[C@H](C)NC(=O)[C@H](CCCCN)NC(=O)[C@@H](NC(=O)[C@H](Cc1c[nH]c2ccccc12)NC(=O)[C@H](CCC(N)=O)NC(=O)[C@H](CCCNC(=N)N)NC(=O)CNC(=O)[C@H](C)N)[C@@H](C)CC)[C@@H](C)CC)C(C)C)C(=O)N[C@@H](C)C(=O)N[C@@H](Cc1c[nH]c2ccccc12)C(=O)O` [Syn-sordellicin-45] (H-AGRQWIKAYLRREIRKVGRKARIAW-OH; N-terminus and C-terminus assumed), the MBC with E. coli (BL21) came out at 1 µM; in the assay on S. pyogenes (M1) it was 2 µM; in the assay with S. aureus (USA300), 32 µM; with P. aeruginosa (PAO1), 32 µM. For the same compound, the MIC with E. coli (BL21) worked out at 1 µM; in the assay with S. pyogenes (M1) (M1, 16 h) it was 2 µM; with S. aureus (USA300), 32 µM; with P. aeruginosa (PAO1), 16 µM.

Consider `CC[C@H](C)[C@H](NC(=O)[C@H](CCCCN)NC(=O)CNC(=O)[C@H](Cc1ccccc1)NC(=O)[C@H](CCCCN)NC(=O)[C@H](CCCNC(=N)N)NC(=O)[C@H](CC(C)C)NC(=O)[C@H](Cc1ccc(O)cc1)NC(=O)[C@H](CCC(=O)O)NC(=O)[C@H](CC(C)C)NC(=O)[C@H](CC(C)C)NC(=O)[C@H](CCC(=O)O)NC(=O)[C@H](CCCCN)NC(=O)[C@@H](NC(=O)[C@H](CC(C)C)NC(=O)[C@H](CCCNC(=N)N)NC(=O)[C@H](CCC(N)=O)NC(=O)[C@H](C)NC(=O)CNC(=O)[C@@H](N)Cc1c[nH]c2ccccc12)[C@@H](C)O)C(=O)N[C@@H](C)C(=O)N[C@@H](CCCNC(=N)N)C(=O)N[C@@H](CCCCN)C(=O)N[C@@H](C)C(=O)N[C@@H](Cc1c[nH]c2ccccc12)C(=O)O` [Syn-xiamencin-15] (H-WGAQRLTKELLEYLRKFGKIARKAW-OH; N-terminus and C-terminus assumed), for which the MBC is 2 µM in the assay with E. coli (BL21), 1 µM with S. pyogenes (M1), 128 µM in the assay with S. aureus (USA300) and more than 128 µM with P. aeruginosa (PAO1). For the same compound, the MIC in the assay with E. coli (BL21) was 2 µM; with S. pyogenes (M1) (M1, 16 h), 1 µM; in the assay on S. aureus (USA300) it was 64 µM; with P. aeruginosa (PAO1), more than 128 µM.
